# Reference: patent US12331121B2, “Efflux pump-cancer antigen multi-specific antibodies and compositions, reagents, kits and methods related thereto” (William Robert Arathoon Living Trust Dated August 29, 2016, priority 2019, dated 2025)
# Experiments:
# [1] = test system: N6ADR cells; experiment: Paclitaxel sensitization of N6ADR cells in vitro; assay type: cell-based, human; settings: FIG. 5, 6; compared to chemo only
# Experimental: HEK 293T, MCF-7, N6ADR and SKNF7 cell lines expressing Pgp were obtained from the American Type Culture Collection. N6/ADR cells is also referred to as NALM6/ADR cells. All cell lines and lines derived from them were maintained in RPMI 1640 or DMEM supplemented with up to 10% fetal bovine serum (Sigma), nonessential amino acids, and 2 mmol/L L-glutamine at 37° C. and 5% CO2 in a humidified incubator (unless otherwise indicated). Cells were used as supplied or were modified to overexpress (Ox) Pgp or were subject to having Pgp expression knocked down (KD) with lentiviral-mediated short hairpin RNA or knock out (KO) of the functional CD47 gene by CRISPR/Cas-mediated knock out technology essentially as described (Cong, L. et al. (2013) Science 339, 819-823). For vincristine and paclitaxel IC50 determination, cells were plated in normal growth medium and allowed to adhere overnight. Paclitaxel or vincristine (Sigma) were added in a dilution series and any modulators were added within ranges of 0 to 500 μM/L. Cell viability was measured 72 h later using the Celltiter-Glo Luminescent Cell Viability Assay (Promega).
# FIG. 5 and FIG. 6A-6C illustrate the enhanced killing of cells, by the antineoplastic agent paclitaxel, when cells are bound by the 15D3.aCD47:MRK16 bispecific antibody (highlighted with arrows).
# [2] = test system: multidrug resistant N6ADR cells; experiment: N6ADR tumor volume in mice (Example 2, FIG. 9); assay type: in vivo; settings: antibody on day 0, 4, 7, 11; no chemotherapeutic agent
# Experimental: N6ADR cells were injected into a cohort of 6 mice per test group prior to administration of the indicated antibodies. The antibodies were administered once palpable tumors reached a size of about 100-150 mm^3 (about 7 days after injection of tumor cells). Antibodies were administered on day 0, day 4, day 7, and day 11. Tumor volumes were measured and are plotted. Panel A: 15D3/MRK16 monoclonal anti-MDR1 antibody. Panel B: KT14/MRK16 monoclonal anti-CD47 antibody. Panel C: Co-administration of 15D3/MRK16 monoclonal anti-MDR1 antibody and KT14/MRK16 monoclonal anti-CD47 antibody. Panel D: KbisP1.1 antibody.
# The indicated antibodies were administered with or without the chemotherapeutic agent paclitaxel. Antibody was dosed about 1-4 hrs prior to Paclitaxel.
# [3] = test system: NALM6 ADR cells
# From the text: Cells: NALM6 (ATCC) and NALM6 ADR (ATCC), B cell precursor lymphoblastic leukemia cell lines used in this study. NALM6 ADR is a multidrug resistant cell line derived from NALM6 cells.
# Mice: Sixty-five 5-6-weeks-old female SCID-Beige mice (Charles River) were used in this study.
# Inoculation-2×10^6 cells diluted in PBS:Matrigel (1:1) were subcutaneously injected using a 27G insulin syringe into fifty anesthetized 5-6-week-old female SCID-Beige mice under sterile conditions.
# NALM6 ADR subcutaneous tumors: Mice were randomized into nine groups of five mice each—(i) Control isotype IgG1 15 mg/kg, (ii) Control isotype IgG1 15 mg/kg and 5 mg/kg of paclitaxel, (iii) Control isotype IgG1 15 mg/kg and 20 mg/kg of paclitaxel, (iv) BisP1.1 15 mg/kg, (v) BisP1.1 15 mg/kg and 5 mg/kg of paclitaxel, (vi) BisP1.1 15 mg/kg and 20 mg/kg of paclitaxel (vii) Valspodar 20 mg/kg (viii) Valspodar 20 mg/kg and 5 mg/kg of paclitaxel and (ix) Valspodar 20 mg/kg and […]. Antibody, Valspodar and paclitaxel were dosed intraperitoneally twice a week for four consecutive weeks. Antibody/valspodar were injected at least 4 hours prior to paclitaxel injection. Paclitaxel preparation: Since paclitaxel is poorly soluble, a master stock of 50 mg/ml was prepared in absolute ethanol:Kolliphor (1:1). Prior to injection the stock was diluted to recommended doses of 5 mg/kg or 20 mg/kg with PBS maintaining a ratio of (1:16).
# Measurements: Tumor measurements were done thrice a week using a calibrated Vernier Caliper and tumor volume calculated as per the formula ½*L*S*S where L is the long axis and s is the short axis of the tumor. Body weights were recorded before treatment started and were continuously monitored throughout the study. Animal survival was evaluated from the first day of treatment until death. To avoid suffering, mice were euthanized when turning moribund according to the above-mentioned predefined criteria: rapid weight loss, loss of ability to ambulate, labored respiration, or inability to drink or feed.
# Statistics: Tumor volume and body weights were compared between different experimental groups using exact one-way analysis of variance (ANOVA). Kaplan-Meier survival curves were compared between different treatment groups using the log-rank (Mantel-Cox) test. Statistical analyses were performed using Graph Pad Prism (GraphPad, San Diego, CA, USA) software. The level of significance was set at p<0.05 for all analyses.
# [4] = test system: A2780ADR cells; experiment: A2780ADR subcutaneous tumors in mice; assay type: in vivo
# Experimental: A2780ADR MDR cancer cell line and HeyT30 MDR cancer cell line were injected into mice according to protocols described in Example 3. Mice were treated with BisP1.1 bispecific antibody with or without paclitaxel.
# Cells: A2780ADR cell line (Sigma, catalogue no 93112520) is an epithelial ovarian carcinoma, derived from parent A2780 cell line (Sigma, catalogue no 93112519), was used in this study.
# Mice: 5-6-weeks-old female nude mice (Charles River) were used in this study.
# All animal maintenance, handling, surveillance, and animal procedures were performed in accordance with and approval from the APLAC protocol.
# A2780ADR subcutaneous tumors: Mice were randomized into six groups of five mice each—(i) Control isotype IgG1 3 mg/kg, (ii) Control isotype IgG1 3 mg/kg and 20 mg/kg of paclitaxel, (iii) KNJYBisP1.1 3 mg/kg, (iv) KNJYBisP1.1 3 mg/kg and 20 mg/kg of paclitaxel, (v) KNJYBisP1.1 N297A 3 mg/kg and (vi) KNJYBisP1.1 N297A 3 mg/kg and 20 mg/kg of paclitaxel. Antibody and paclitaxel were dosed intraperitoneally twice a week for two consecutive weeks.
# A2780ADR subcutaneous tumors: Once tumors reached 100-150 mm^3, mice were randomized into ten groups of five mice each—(i) Control isotype IgG1 3 mg/kg, (ii) Control isotype IgG1 3 mg/kg and 20 mg/kg of paclitaxel, (iii) KNJYBisP1.1 3 mg/kg, (iv) KNJYBisP1.1 3 mg/kg and 20 mg/kg of paclitaxel, (v) 15D3 hybridoma monoclonal Ab 3 mg/kg, (vi) 15D3 hybridoma 3 mg/kg and 20 mg/kg of paclitaxel, (vii) KT14/KT14 monoclonal Ab 3 mg/kg, (viii) KT14/KT14 monoclonal Ab 3 mg/kg and 20 mg/kg of paclitaxel, (ix) 15D3 hybridoma+KT14/KT14, 1.5 mg each and (x) 15D3 hybridoma+KT14/KT14, 1.5 mg each and 20 mg/kg of paclitaxel. Antibodies and paclitaxel were dosed intraperitoneally twice a week for two consecutive weeks.
substance,measurement,setting,value
"KBisP1.1: bispecific anti-MDR1/anti-CD47 antibody: 15D3 heavy chain, 5F9 (KT14) heavy chain, common MRK16 light chain, human IgG1",sensitivity of N6ADR cells to paclitaxel,[1],enhanced
same,effect on tumor volume without paclitaxel,[2],more efficacious than the co-administration
same,"tumor growth, agent alone",[3]; 15 mg/kg i.p. twice a week,strong inhibition of tumor growth
same,tumor growth in combination with paclitaxel,[3]; BisP1.1 15 mg/kg or valspodar 20 mg/kg with paclitaxel 5 or 20 mg/kg,significantly reduced tumor growth
same,survival,"[3]; valspodar with paclitaxel 20 mg/kg, BisP1.1 alone or plus paclitaxel, compared to control",prolonged survival
same,chemosensitizing effect compared with monospecific antibodies,"[4]; 3 mg/kg with paclitaxel 20 mg/kg, FIG. 28",stronger compared to either the anti-MDR1 15D3 hybridoma antibody or anti-CD47 KT14 monoclonal antibody
same,tumor volume,"[4]; Example 4, with or without paclitaxel, FIG. 18",efficacious in reducing A2780ADR MDR cancer cell tumor volume with or without paclitaxel
same,chemosensitization of A2780ADR tumors to paclitaxel,"[4]; antibody 3 mg/kg, paclitaxel 20 mg/kg",chemosensitizes
